Usually inhibition stands for how much of the control response was suppressed.

The first test deals with NF-κB mediated transcription. The experiment in a line: NF-κB driven β-lactamase reporter assay in ECV-304 NF-κB.βlaZ cells (AURORA CCF2 fluorescence). Type of test: cell-based, human. The following applies: Homo sapiens, ECV-304, 6 h, 10 μM compound; ECV-304 NF-κB.βlaZ cells stimulated with 10 ng/mL TNF-α or 100 pg/mL IL-1β, 6 hours at 37° C.; inhibition of maximum blue/green ratio; read-out: Percent Inhibition at 10 μM. Summed up: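 ECV-304 cells (clone 1E8) stably carrying a β-lactamase reporter driven by 5 HIV-1 NF-κB sites, plated in M-199 with 2% FBS, compound at 10 μM final. CCF2 read at 395 nm excitation, blue 460 nm/green 530 nm emission ratio; IC50 from dose-response curve.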
Turning to `COc1ccc(OC)c(CC(=O)NS(=O)(=O)Oc2c(C(C)C)cccc2C(C)C)c1` [Example 145, [(2,5-Dimethoxy-phenyl)-acetyl]-sulfamic acid 2,6-diisopropyl-phenyl ester], the inhibition at 10 µM is under 10%.
Still for that read-out and setting: the value for `Cc1cc(C)c(CC(=O)NS(=O)(=O)Oc2c(C(C)C)cccc2C(C)C)c(C)c1` [Example 146, [(2,4,6-Trimethyl-phenyl)-acetyl]-sulfamic acid 2,6-diisopropyl-phenyl ester] was 28.3%.
Consider `COc1cc(OC)c(CC(=O)NS(=O)(=O)Oc2c(C(C)C)cccc2C(C)C)c(OC)c1` [Example 147, [(2,4,6-Trimethoxy-phenyl)-acetyl]-sulfamic acid 2,6-diisopropyl-phenyl ester], for which the inhibition at 10 µM was under 10%.
Same read-out and setting: the figure for `CC(C)c1cccc(C(C)C)c1OS(=O)(=O)NC(=O)Cc1cccs1` [Example 148, (Thiophen-2-yl-acetyl)-sulfamic acid 2,6-diisopropyl-phenyl ester] is under 10%; for `CC(C)c1cccc(C(C)C)c1OS(=O)(=O)NC(=O)Cc1ccsc1` [Example 149, (Thiophen-3-yl-acetyl)-sulfamic acid 2,6-diisopropyl-phenyl ester] it is under 10%; for `CC(=O)OC(C(=O)NS(=O)(=O)Oc1c(C(C)C)cccc1C(C)C)c1c(C(C)C)cc(C(C)C)cc1C(C)C` (stereo not shown) [Example 154, Acetic acid 2-(2,6-diisopropyl-phenoxysulfonylamino)-2-oxo-1-(2,4,6-triisopropyl-phenyl)-ethyl ester] it is 77.7%.
Regarding `CC(C)c1cccc(C(C)C)c1OS(=O)(=O)NC(=O)CC1CCCCC1` [Example 155, Cyclohexylacetyl-sulfamic acid 2,6-diisopropyl-phenyl ester], the inhibition at 10 µM is under 10%.
Same read-out and setting: the value for `COc1ccccc1CC(=O)NS(=O)(=O)Oc1c(C(C)C)cccc1C(C)C` [Example 156, [(2-Methoxy-phenyl)-acetyl]-sulfamic acid 2,6-diisopropyl-phenyl ester] was under 10%; that for `CC(C)c1cccc(C(C)C)c1OS(=O)(=O)NC(=O)C(=O)c1ccccc1` [Example 157, (Oxo-phenyl-acetyl)-sulfamic acid 2,6-diisopropyl-phenyl ester] was under 10%.
Still for that read-out and setting: the value for `CC(C)c1cccc(C(C)C)c1OS(=O)(=O)NC(=O)Cc1ccccc1C(F)(F)F` [Example 158, [(2-Trifluoromethyl-phenyl)-acetyl]-sulfamic acid 2,6-diisopropyl-phenyl ester] was 25.9%.
On the same count and under the same terms, the figure for `CC(C)c1cccc(C(C)C)c1OS(=O)(=O)NC(=O)C(C)c1ccccc1` (stereo not shown) [Example 159, (2-Phenyl-propionyl)-sulfamic acid 2,6-diisopropyl-phenyl ester] is 10.1%.
Regarding `CC(C)c1cccc(C(C)C)c1OS(=O)(=O)NC(=O)C(c1ccccc1)c1ccccc1` [Example 160, Diphenylacetyl-sulfamic acid 2,6-diisopropyl-phenyl ester], the inhibition at 10 µM is 34.2%.

The same test, now with this note: Homo sapiens; 10 μM compound; ECV-304 NF-κB.βlaZ cells stimulated with 10 ng/mL TNF-α or 100 pg/mL IL-1β, 6 hours at 37° C.; inhibition of maximum blue/green ratio; read-out: Percent Inhibition at 10 μM.
For the molecule `CC(C)c1cccc(C(C)C)c1OS(=O)(=O)NC(=O)Oc1ccc(F)cc1` [Example 150, Carbamic acid, [[2,6-bis(1-methylethyl)phenoxy]sulfonyl]-, 4-fluorophenyl ester], the inhibition at 10 µM was under 10%.
Still for that read-out and setting: the figure for `CC(C)c1cccc(C(C)C)c1OS(=O)(=O)NC(=O)Oc1ccc(F)cc1F` [Example 151, Carbamic acid, [[2,6-bis(1-methylethyl)phenoxy]sulfonyl]-, 2,4-difluorophenyl ester] is under 10%; for `CC(C)c1cccc(C(C)C)c1OS(=O)(=O)NC(=O)Oc1c(F)c(F)c(F)c(F)c1F` [Example 152, Carbamic acid, [[2,6-bis(1-methylethyl)phenoxy]sulfonyl]-, pentafluorophenyl ester] it is under 10%.
Still for that read-out and setting: the value for `CC(C)c1cccc(C(C)C)c1OS(=O)(=O)NC(=O)Oc1c(F)cccc1F` [Example 153, Carbamic acid, [[2,6-bis(1-methylethyl)phenoxy]sulfonyl]-, 2,6-difluorophenyl ester] was under 10%.

(Values after patent US20020183384A1, “Methods of treating nuclear factor-kappa B mediated diseases and disorders” (priority 2001, published 2002).)
